{"source": "patent US20020151553A1", "about": "“Chemokine receptor antagonists and methods of use therefor” (Millennium Pharmaceuticals, Inc., priority 1996, published 2002)", "data": [{"target": "T1, chemokine receptor (RANTES / MIP-1α binding) on THP-1 cell membranes (Homo sapiens, UniProt P32246)", "T1 sequence (P32246 1-355)": "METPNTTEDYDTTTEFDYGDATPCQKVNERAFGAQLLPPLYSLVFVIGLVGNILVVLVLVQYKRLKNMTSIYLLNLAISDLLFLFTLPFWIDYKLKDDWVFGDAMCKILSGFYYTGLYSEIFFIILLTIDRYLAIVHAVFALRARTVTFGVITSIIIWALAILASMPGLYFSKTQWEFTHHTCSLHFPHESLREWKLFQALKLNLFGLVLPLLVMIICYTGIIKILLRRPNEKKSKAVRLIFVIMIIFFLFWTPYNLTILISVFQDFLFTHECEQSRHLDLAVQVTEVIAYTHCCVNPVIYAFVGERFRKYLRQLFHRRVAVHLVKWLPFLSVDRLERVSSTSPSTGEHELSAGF", "assay": "Receptor binding assay with 125I-RANTES or 125I-MIP-1α as ligand and THP-1 cell membranes", "settings": "not given", "protocol": "(§1) Membranes were prepared from THP-1 cells (ATCC #TIB202). Cells were harvested by centrifugation, washed twice with PBS (phosphate-buffered saline), and the cell pellets were frozen at −70 to −85° C. […] This procedure results in cell lysis. The suspension was mixed well to resuspend all of the frozen cell pellet. Nuclei and cell debris were removed by centrifugation of 400× g for 10 minutes at 4° C. The supernatant was transferred to a fresh tube and the membrane fragments were collected by centrifugation at 25,000× g for 30 minutes at 4° C. The supernatant was aspirated and the pellet was resuspended in freezing buffer consisting of 10 mM HEPES pH 7.5, 300 mM sucrose, 1 μg/ml each aprotinin, leupeptin, and chymostatin, and 10 μg/ml PMSF approximately 0.1 ml per each 10^8 cells). All clumps were resolved using a minihomogenizer, and the total protein concentration was determined using a protein assay kit (Bio-Rad, Hercules, Calif., cat #500-0002). The membrane solution was then aliquoted and frozen at −70 to −85° C. until needed. Binding Assays utilized the membranes described above.", "units": {"IC50": "nM"}, "values": [{"compound": "N#CC1(CCCN2CCC(O)(c3ccc(Cl)cc3)CC2)c2ccccc2C[S+]([O-])c2ccccc21", "note": "(single isomer, unassigned) [Example 14, 4-(4-Chlorophenyl)-1-[3-(11-cyano-6,11-dihydro-5-oxodibenzo[b,e]thiepin-11-yl)propyl]piperidin-4-ol]", "IC50": 280}, {"compound": "O=C(NCC1(CCCN2CCC(O)(c3ccc(Cl)cc3)CC2)c2ccccc2CSc2ccccc21)Oc1ccccc1", "note": "(centres unmarked) [Example 22]", "IC50": 690}, {"compound": "N#CC1(CCCN2CCC(O)(c3ccc(Cl)cc3)CC2)c2ccccc2C[S+]([O-])c2ccccc21", "note": "(single isomer, unassigned) [Example 15, 4-(4-Chlorophenyl)-1-[3-(11-cyano-6,11-dihydro-5-oxodibenzo[b,e]thiepin-11-yl)propyl]piperidin-4-ol]", "IC50": 610}, {"compound": "O=C(CCN1CCC(O)(c2ccc(Cl)cc2)CC1)C1c2ccccc2CCc2ccccc21", "note": "[Example 24, 4-(4-Chlorophenyl)-1-[3-(10,11-dihydro-5H-dibenzo[a,d]cycloheptene-5-yl)-3-propioyl]piperidin-4-ol]", "IC50": 160}, {"compound": "N#CC1(CCCN2CCC(O)(c3ccc(Cl)cc3)CC2)c2ccccc2CCc2ccccc21", "note": "[Example 2, 4-(4-Chlorophenyl)-1-[3-(5-cyano-10,11-dihydro-5H-dibenzo[a,d]cycloheptene-5-yl)propyl]piperidin-4-ol]", "IC50": 52}, {"compound": "N#CC1(CCCN2CCC(O)(c3ccc(Cl)cc3)CC2)c2ccccc2CSc2ccccc21", "note": "(centres unmarked) [Example 10, 4-(4-Chlorophenyl)-1-[3-(11-cyano-6,11-dihydrodibenzo[b,e]thiepin-11-yl)propyl] piperidin-4-ol]", "IC50": 97}]}, {"target": "T1, chemokine receptor (RANTES / MIP-1α binding) on THP-1 cell membranes", "assay": "Receptor binding assay with 125I-RANTES or 125I-MIP-1α as ligand and THP-1 cell membranes", "settings": "125I-RANTES or 125I-MIP-1α as ligand; THP-1 cell membranes; 60 min at room temperature; read-out: IC50 (inhibitor concentration required for 50% inhibition of specific binding)", "protocol": "as §1", "units": {"IC50": "nM"}, "values": [{"compound": "OC1(c2ccc(Cl)cc2)CCN(CCCC2c3ccccc3COc3ccccc32)CC1", "note": "(centres unmarked) [Example 19, 4-(4-Chlorophenyl)-1-[3-(6,11-dihydrodibenz[b,e]oxepin-11-yl)propyl]piperidin-4-ol]", "IC50": 59}, {"compound": "Cc1ccc2c(c1)C(C#N)(CCCN1CCC(O)(c3ccc(Cl)cc3)CC1)c1ccccc1CO2", "note": "(centres unmarked) [Example 7, 4-(4-Chlorophenyl)-1-[3-(11-cyano-6,11-dihydro-2-methyldibenz[b,e]oxepin-11-yl)propyl]piperidin-4-ol]", "IC50": 380}, {"compound": "N#CC1(CCCN2CCC(O)(c3ccc(Br)cc3)CC2)c2ccccc2CSc2ccccc21", "note": "(centres unmarked) [Example 12, 4-(4-Bromophenyl)-1-[3-(11-cyano-6,11-dihydrodibenzo[b,e]thiepin-11-yl)propyl]piperidi n-4-ol]", "IC50": 99}, {"compound": "N#CC1(CCCN2CCC(O)(c3ccc(Cl)cc3)CC2)c2ccccc2CS(=O)(=O)c2ccccc21", "note": "(centres unmarked) [Example 16, 4-(4-Chlorophenyl)-1-[3-(11-cyano-6,11-dihydro-5,5-dioxodibenzo[b,e]thiepin-11-yl)propyl]piperidin-4-ol]", "IC50": 79}, {"compound": "N#CC1(CCCN2CCC(O)(c3ccc(F)cc3)CC2)c2ccccc2COc2ccccc21", "note": "(centres unmarked) [Example 4, 1-[3-(11-Cyano-6,11-dihydrodibenz[b,e]oxepin-11-yl)propyl]-4-(4-fluorophenyl)piperidin-4-ol]", "IC50": 390}, {"compound": "N#CC1(CCCN2CCC(O)(c3ccc(Cl)cc3)CC2)c2ccccc2COc2ccc(Br)cc21", "note": "(centres unmarked) [Example 6, 1-[3-(2-Bromo-11-cyano-6,11-dihydrodibenz[b,e]oxepin-11-yl)propyl]-4-(4-chlorophenyl)piperidin-4-ol]", "IC50": 300}, {"compound": "N#CC1(CCCN2CCC(O)(c3ccc(Cl)cc3)CC2)c2ccccc2C=Cc2ccccc21", "note": "[Example 1, 4-(4-Chlorophenyl)1-[3-(5-cyano-5H-dibenzo[a,d]cycloheptene-5-yl)propyl]piperidin-4-ol]", "IC50": 88}, {"compound": "N#CC1(CCCN2CCC(O)(c3ccc(Cl)cc3)CC2)c2ccccc2COc2ccccc21", "note": "(centres unmarked) [Example 3, 4-(4-Chlorophenyl)-1-[3-(11-cyano-6,11-dihydrodibenz[b,e]oxepin-11-yl)propyl]piperidin-4-ol]", "IC50": 110}, {"compound": "OC1(c2ccc(Cl)cc2)CCN(CCCC2c3ccccc3CCc3ccccc32)CC1", "note": "[Example 18, 4-(4-Chlorophenyl)-1-[3-(10,11-dihydro-5H-dibenzo[a,d]cycloheptene-5-yl)propyl]piperidin-4-ol]", "IC50": 55}, {"compound": "N#CC1(CCCN2CCC(O)(c3ccc(Cl)cc3)CC2)c2ccccc2COc2ccc(F)cc21", "note": "(centres unmarked) [Example 5, 4-(4-Chlorophenyl)-1-[3-(11-cyano-6,11-dihydro-2-fluorodibenz[b,e]oxepin-11-yl)propyl]piperidin-4-ol]", "IC50": 190}, {"compound": "1-[2-[3-[4-(4-chlorophenyl)-4-hydroxypiperidino]propyl]-2-(6,11-dihydrodibenzo[b,e]thiepi n-11-yl)ethyl]-3-(hydroxypropyl)urea [Example 23]", "IC50": 2200}, {"compound": "OC1(c2ccc(Cl)cc2)CCN(CCCC2c3ccccc3CSc3ccccc32)CC1", "note": "(centres unmarked) [Example 17, 4-(4-Chlorophenyl)-1-[3-(6,11-dihydrodibenzo[b,e]thiepin-11-yl)propyl]piperidin-4-ol]", "IC50": 70}, {"compound": "N#CC1(CCCN2CCC(O)(c3ccc(Cl)cc3)CC2)c2ccccc2CSc2ccc(Br)cc21", "note": "(centres unmarked) [Example 13, 1-[3-(2-Bromo-11-cyano-6,11-dihydrodibenzo[b,e]thiepin-11-yl)propyl]-4-(4-chlorophenyl)piperidin-4-ol]", "IC50": 380}, {"compound": "N#CC1(CCCN2CCC(O)(c3ccccc3)CC2)c2ccccc2CSc2ccccc21", "note": "(centres unmarked) [Example 11, 1-[3-(1l-Cyano-6,11-dihydrodibenzo[b,e]thiepin-11-yl)propyl]-4-phenylpiperidin-4-ol]", "IC50": 11000}]}]}
